Results: US6458962B1, “Sultams: catalyst systems for asymmetric reduction of a C=N intermediate biological compositions and methods for making the sultams” (The University of Tennesseee Research Corporation, priority 1999, dated 2002)

Experiments:
HIV-1 = assay: Anti-HIV-1 activity, National Cancer Institute protocol (Weislow et al.); type: cell-based; details: for EC50: Human immunodeficiency virus 1, read-out: ECSO; for TLSO: ratio IC50/EC50, NCI protocol
Experimental: (§1) The sultams of the invention were tested in accordance with the National Cancer Institute Protocol, Weislow, O. W., et al. (1989) J. Natl. Cancer Inst. 81:577-586, which is incorporated herein by reference. The protocol is also described in U.S. Pat. No. 5,843,990.
The anti-HIV activity of compounds of the invention illustrated by the formula V shown above, is reported below.
Table III illustrates anti-HIV-1 activities of compounds of the invention, the substituents (shown in formula V).

[1] = IC50 in the National Cancer Institute anti-HIV protocol (Weislow et al.), used with EC50 for the TI50; type: cell-based; details: NCI protocol; read-out: ICSO
Experimental: as §1

Structure (SMILES)	EC50 (HIV-1)	TLSO (HIV-1)	melting point	IC50 [1]
CN1[C@@H](c2ccccc2)c2ccccc2S1(=O)=O [Compound 5, (+)-(S)-2-Methyl-3-phenyl-2,3-dihydrobenzo[d]isothiazole 1,1-Dioxide]	471 nM	>674	156 to 157 °C	> 316 µM
Cc1ccccc1C1c2ccccc2S(=O)(=O)N1C (single isomer, unassigned; (+)) [Compound 18, (+)-2-Methyl-3-(2-methylphenyl)-2,3-dihydrobenzo[d]isothiazole 1,1-Dioxide]	4680 nM	26.3	152 °C	123 µM
CN1[C@@H](c2cccc(Br)c2)c2ccccc2S1(=O)=O [Compound 9, (+)-(S)-3-(3-Bromophenyl)-2-methyl-2,3-dihydrobenzo[d]isothiazole 1,1-Dioxide]	74 nM	136.5	157 °C	101 µM
CN1[C@@H](c2cccc(Cl)c2)c2ccccc2S1(=O)=O [Compound 11, (+)-(S)-3-(3-Chlorophenyl)-2-methyl-2,3-dihydrobenzo[d]isothiazole 1,1-Dioxide]	86 nM	>31	164 °C	> 2 µM
CN1C(c2cccc(F)c2)c2ccccc2S1(=O)=O (single isomer, unassigned; (+)) [Compound 13, (+)-3-(3-Fluorophenyl)-2-methyl-2,3-dihydrobenzo[d]isothiazole 1,1-Dioxide]	179 nM	538	147 °C	147 µM
CN1[C@@H](c2cccc(I)c2)c2ccccc2S1(=O)=O [Compound 15, (+)-(S)-2-Methyl-3-(3-iodophenyl)-2,3-dihydrobenzo[d]isothiazole 1,1-Dioxide]	76 nM	817	156 °C	62.4 µM
Cc1cccc(C2c3ccccc3S(=O)(=O)N2C)c1 (single isomer, unassigned; (+)) [Compound 7, (+)-2-Methyl-3-(3-methylphenyl)-2,3-dihydrobenzo[d] isothiazole 1,1-Dioxide]	37 nM	>54	154 °C	> 2 µM
